Results reported in publication PMC12040169 (PLOS Biology, 2025).

test: in vitro; conditions: human, hela cells, % viability

Row | SMILES | viability at 28.5 h, 10 µM [%]
1 | Cc1ccc(C)c(-c2nn(-c3ccccc3)cc2/C=C2\SC(=S)N(CC(=O)O)C2=O)c1 [CBK264541] | 98.4
2 | NS(=O)(=O)c1cc(C(=O)OCC(=O)c2ccccc2)c(Cl)cc1Cl [CBK264542] | 90.8
3 | c1cncc(-c2nnc(SCc3nc4ccccc4[nH]3)o2)c1 [CBK264543] | 98.1
4 | COc1ccccc1N(CC(O)Cn1nc(C)cc1C)S(=O)(=O)c1ccccc1 (stereo not drawn) [CBK264546] | 100
5 | O=C(C1=C(O)C(=O)N(Cc2cccnc2)C1c1cccnc1)c1cccs1 (stereo not drawn) [CBK264547] | 119
6 | COc1cccc(NC(=S)NCCCN2CCOCC2)c1 [CBK264548] | 123
7 | O=C(O)CCN1C(=O)C(O)=C(C(=O)c2ccc(Cl)cc2)C1c1ccccc1[N+](=O)[O-] (stereo not drawn) [CBK264553] | 98.8
8 | O=C(C1=C(O)C(=O)N(CCCN2CCOCC2)C1c1cccnc1)c1cccs1 (stereo not drawn) [CBK264555] | 113
9 | CN1CCc2c(sc3nc(SCc4cccc5ccccc45)n(-c4ccccc4)c(=O)c23)C1 [CBK264556] | 124
10 | O=C(Nc1ccccc1[N+](=O)[O-])c1cc(S(=O)(=O)NCc2ccco2)ccc1Cl [CBK264557] | 94.4
11 | CC1(C)NC(=O)N(CC(O)CN2CCCC2)C1=O (stereo not drawn) [CBK264558] | 96.3
12 | Cc1ccc(C2C(C(=O)c3cccs3)=C(O)C(=O)N2CCN2CCOCC2)o1 (stereo not drawn) [CBK264559] | 91.1
13 | O=C(NCCCO)c1ccc(/C=N/O)nc1 [CBK264560] | 97.7
14 | COc1ccc(OC(=O)c2cc(S(=O)(=O)N3CCCCCC3)ccc2Cl)cc1 [CBK264562] | 95.9
15 | CC1(C)CC(NCC(O)COc2cc(C(C)(C)C)c(O)c(C(C)(C)C)c2)CC(C)(C)N1 (stereo not drawn) [CBK264564] | 124
16 | CCOC(=O)c1c(NC(=O)CN2CC(C)OC(C)C2)sc2c1CCC(C)C2 (stereo not drawn) [CBK264572] | 107
17 | Cc1ccc(NC(=S)N2CCN(C/C=C/c3ccccc3)CC2)cc1 [CBK264574] | 98.9
18 | O=C(O)c1cc(S(=O)(=O)N2CCOCC2)c(Cl)cc1NC1CCCCC1 [CBK264576] | 97.8
19 | CCN(CC)S(=O)(=O)c1ccc(C)c(C(=O)Oc2cccc(-c3cnc4ccccc4n3)c2)c1 [CBK264577] | 85.8
20 | CC1(C)NC(=O)N(CC(O)CN(C2CCCCC2)C2CCCCC2)C1=O (stereo not drawn) [CBK264578] | 101
21 | CCOc1ccc(-n2c(SCc3nc4ccccc4[nH]3)nc3sc4c(c3c2=O)CCCC4)cc1 [CBK264581] | 103

Row | SMILES | viability at 28.5 h, 10 µM [%]
22 | CC(NC(=O)/C(=C\c1ccc(Cl)cc1)NC(=O)c1ccccc1Br)C(=O)O (stereo not drawn) [CBK264582] | 91.4
23 | CN(C)CCN1C(=O)C(O)=C(C(=O)c2cccs2)C1c1ccc([N+](=O)[O-])cc1 (stereo not drawn) [CBK264584] | 92.6
24 | O=C(Nc1cccc2ccccc12)/C(=C\c1ccco1)NC(=O)c1ccc(Br)cc1 [CBK264587] | 104
25 | CN(C)CCCN1C(=O)C(O)=C(C(=O)c2ccc(Br)cc2)C1c1cccnc1 (stereo not drawn) [CBK264589] | 105
26 | O=C(C1=C(O)C(=O)N(CCCn2ccnc2)C1c1cccc([N+](=O)[O-])c1)c1cccs1 (stereo not drawn) [CBK264591] | 95.9
27 | O=C(CC1S/C(=N/N=C/c2ccc(-c3cc([N+](=O)[O-])ccc3Cl)o2)NC1=O)Nc1ccccc1 (stereo not drawn) [CBK264592] | 95.3
28 | Cc1ccc(C(=O)C2=C(O)C(=O)N(Cc3cccnc3)C2c2cccc([N+](=O)[O-])c2)cc1 (stereo not drawn) [CBK264593] | 89.3
29 | Cc1sc2nc(SCc3nc4ccccc4[nH]3)n(-c3ccc(Cl)c(Cl)c3)c(=O)c2c1C [CBK264594] | 102
30 | COc1c(Cl)ccc(Cl)c1C(=O)OCC(=O)O [CBK264596] | 115
31 | COc1ccc(C2=NN(c3ccc([N+](=O)[O-])cc3)C(=O)/C2=C/NCc2ccc3c(c2)OCO3)cc1 [CBK264598] | 84.1
32 | S=C(NCCCN1CCOCC1)Nc1ccccc1Cl [CBK264599] | 100
33 | O=C(C1=C(O)C(=O)N(CCCn2ccnc2)C1c1ccncc1)c1ccc(F)cc1 (stereo not drawn) [CBK264601] | 93.7
34 | O=C(CN(c1cc(C(F)(F)F)ccc1Cl)S(=O)(=O)c1ccccc1)NCc1cccnc1 [CBK264607] | 94.4
35 | C1=CC2CC1CC2CN1CCC(N(CCc2ccccc2)Cc2ccccc2)CC1 (stereo not drawn) [CBK264613G] | 87.7
36 | CCOc1cc(/C=C2\SC(=S)N(Cc3cccnc3)C2=O)ccc1OCc1cccc(F)c1 [CBK264615] | 112
37 | O=C(COc1ccccc1/C=C1/NC(=O)NC1=O)Nc1ccccc1 [CBK264620] | 99.3
38 | O=[N+]([O-])c1ccc(CN2CCC(N3CCN(CCO)CC3)CC2)cc1 [CBK264621G] | 92.6
39 | CN(Cc1ccccc1)C1CCN(Cc2ccccn2)CC1 [CBK264622G] | 107
40 | COc1cc(/C=C2\SC(=S)N(Cc3cccnc3)C2=O)ccc1OCc1cccc2ccccc12 [CBK264624] | 112
41 | CCOc1ccccc1NC(=O)CN(c1cc(C(F)(F)F)ccc1Cl)S(C)(=O)=O [CBK264627] | 84.7
42 | O=C(CN1C(=O)S/C(=C\c2ccccc2OCc2ccccc2)C1=O)c1ccc(Cl)cc1 [CBK264628] | 92.5

Row | SMILES | viability at 28.5 h, 10 µM [%]
43 | Cc1cc(C)nc(SCc2nc3ccc([N+](=O)[O-])cc3[nH]2)n1 [CBK264634] | 85.3
44 | COc1ccc(C(=O)C2=C(O)C(=O)N(Cc3cccnc3)C2c2ccc(N(C)C)cc2)cc1 (stereo not drawn) [CBK264635] | 85.9
45 | O=C(O)c1ccc(COc2ccc(/C=C3\SC(=S)N(Cc4cccnc4)C3=O)cc2)cc1 [CBK264637] | 101
46 | O=S(=O)(NC1c2cccc3cccc(c23)C1Sc1ncccn1)c1ccc(Cl)cc1 (stereo not drawn) [CBK264638] | 94.3
47 | CC1CC(C)CN(C2CCN(Cc3ccccn3)CC2)C1 (stereo not drawn) [CBK264639G] | 99.4
48 | O=C(c1cc(-c2ccc(Cl)cc2)nc2ccccc12)n1nnc2ccccc21 [CBK264640] | 101
49 | O=C(CSc1nc2cccnc2[nH]1)Nc1cc(Cl)ccc1Cl [CBK264644] | 101
50 | COC(=O)c1ccc(NC(=O)CC2Sc3ccc(C(F)(F)F)cc3NC2=O)cc1 (stereo not drawn) [CBK264645] | 110
51 | O=C(C(Cc1ccccc1)N1C(=O)C2CCCCC2C1=O)N1CCN(Cc2ccc3c(c2)OCO3)CC1 (stereo not drawn) [CBK264648] | 102
52 | CCOc1ccc(C(=O)C2=C(O)C(=O)N(CCN3CCOCC3)C2c2ccc(N(C)C)cc2)c(C)c1 (stereo not drawn) [CBK264650] | 92.7
53 | Cc1cccc(OCc2nnc(SCC(=O)NC3CCCCC3)o2)c1 [CBK264652] | 96.3
54 | CC(=O)Nc1ccc(S(=O)(=O)N2CCC(N3CCOCC3)CC2)cc1 [CBK264653G] | 116
55 | CCN(Cc1ccccc1)C1CCN(Cc2cccc(OC)c2)CC1 [CBK264654G] | 99.2
56 | COc1cc(CN2CCC(N3CCN(c4ccccc4)CC3)CC2)ccc1OCc1ccccc1 [CBK264655G] | 95.6
57 | Cc1ccc(S(=O)(=O)N2CCC(N3CCN(CCO)CC3)CC2)cc1 [CBK264656G] | 96.8
58 | COc1ccc(C(=O)C2=C(O)C(=O)N(Cc3cccnc3)C2c2cccc([N+](=O)[O-])c2)cc1 (stereo not drawn) [CBK264661] | 99.5
59 | CN(C)CC(=O)Nc1ccc(Br)cc1C(=O)c1ccccc1Cl [CBK264663F] | 91.4
60 | O=C(CN(Cc1ccccc1)S(=O)(=O)c1cc(Cl)ccc1Cl)Nc1cccc(F)c1 [CBK264664] | 89.3
61 | CN(C)S(=O)(=O)c1ccc(C(=O)C2=C(O)C(=O)N(Cc3cccnc3)C2c2ccccc2)cc1 (stereo not drawn) [CBK264667] | 100
62 | CN(C)CCN1C(=O)C(O)=C(C(=O)c2ccc(S(=O)(=O)N3CCOCC3)cc2)C1c1ccccc1 (stereo not drawn) [CBK264668] | 100
63 | CC(Sc1ccc(Cl)cc1)C(=O)Nc1ccc(CSc2ccccc2)cc1 (stereo not drawn) [CBK264670] | 93.2

Row | SMILES | viability at 28.5 h, 10 µM [%]
64 | O=C(O)c1ccc(COc2ccc(/C=C3\SC(=S)N(Cc4cccnc4)C3=O)cc2Cl)cc1 [CBK264672] | 91.9
65 | O=C1/C(=C/c2ccc3c(c2)OCO3)SC(=S)N1CCCC(=O)N1CCCc2ccccc21 [CBK264676] | 98.2
66 | O=C(NC(Cc1ccccc1)C(=O)O)c1ccc(Cl)cc1 (stereo not drawn) [CBK264677] | 96.1
67 | CC1=NN(c2ccc(S(N)(=O)=O)cc2)C(=O)/C1=C/c1ccc(-c2ccc3c(c2)COC3=O)o1 [CBK264678] | 95.6
68 | CN(C)CCN1C(=O)C(O)=C(C(=O)c2ccc(S(=O)(=O)N3CCOCC3)cc2)C1c1ccc(F)cc1 (stereo not drawn) [CBK264683] | 104
69 | c1ccc(N2CCN(C3CCN(Cc4ccccn4)CC3)CC2)cc1 [CBK264684G] | 110
70 | Cc1nc(N2CCOCC2)nc(Nc2ccc(Cl)cc2)c1[N+](=O)[O-] [CBK264685] | 87.5
71 | Clc1cccc(CN2CCC(N3CCN(c4ccccc4)CC3)CC2)c1 [CBK264690G] | 98.7
72 | CN(C)CCN1C(=O)C(O)=C(C(=O)c2ccc(S(=O)(=O)N3CCOCC3)cc2)C1c1ccc(Br)cc1 (stereo not drawn) [CBK264693] | 93.5
73 | CC1CC(C)CN(C(=O)Cn2c(-c3nonc3N)nc3ccccc32)C1 (stereo not drawn) [CBK264694] | 89.7
74 | O=C(C1=C(O)C(=O)N(Cc2cccnc2)C1c1cccc(Oc2ccccc2)c1)c1ccc(Cl)cc1 (stereo not drawn) [CBK264698] | 86.6
75 | O=C(Cn1c(-c2cncs2)nc2ccccc21)NCc1ccc2c(c1)OCO2 [CBK264699] | 95.5
76 | CN(C)S(=O)(=O)c1ccc(C(=O)C2=C(O)C(=O)N(CCN3CCCCC3)C2c2cccnc2)cc1 (stereo not drawn) [CBK264700] | 99.9
77 | Cc1ccccc1OCC(=O)Oc1ccc(-c2cnc3ccccc3n2)cc1 [CBK264703] | 100
78 | COc1cc(C(=O)Nc2cc(-c3nc4ncccc4o3)ccc2C)ccc1OCc1ccc(Cl)cc1 [CBK264704] | 112
79 | O=C(Cn1c(-c2cncs2)nc2ccccc21)NCc1ccccc1 [CBK264705] | 103
80 | O=S(=O)(NC1c2cccc3cccc(c23)C1Sc1ncccn1)c1ccccc1 (stereo not drawn) [CBK264706] | 103
81 | Cn1cnnc1SC1c2cccc3cccc(c23)C1NS(=O)(=O)c1ccc(Cl)cc1 (stereo not drawn) [CBK264707] | 98.2
